pIC50: −log10 of the molar value. Calls of active or inactive are those of the source. No cut-off for these calls is given here.
Columns and labels:
[1] = biological target: Serine/threonine-protein kinase mTOR (Homo sapiens, UniProt P42345); assay: Inhibition of N-terminal FLAG-tagged recombinant human mTOR (1362 to end residue) using ULight-4EBP1 peptide as substrate incubated for 30 mins in presence of ATP by Lance ultra assay
HeLa [2] = assay: Antiproliferative activity against human HeLa cells assessed as inhibition of cell growth incubated for 48 to 72 hrs by MTT assay; type: functional, cell-based
[3] = Half life in Sprague-Dawley rat at 10 mg/kg, po measured for 24 hrs by LC-MS/MS analysis; type: ADME, organism-based; conditions: in vivo
HeLa [4] = assay: Antitumor activity against human HeLa cells xenografted in BALB/c nude mouse assessed as reduction in Ki67 expression in tumor administered intragastrically daily for 30 days by immunohistochemical analysis; type: functional; conditions: dose 15-60 mg/kg, route ig, time 30.0 day
[5] = Toxicity in BALB/c nude mouse xenografted with human HeLa cells assessed as pathological changes in kidney at 60 mg/kg, IG administered daily for 30 days by hematoxylin and eosin staining based microscopic analysis; type: organism-based; conditions: in vivo, po, 720 h, time 30 day

## Cc1nc2cnc3ccc(-c4cnc5[nH]ccc5c4)cc3c2n1-c1ccc(C(C)(C)C#N)nc1
[1]
  pIC50: 7.67
HeLa [2]
  pIC50: 7.05
[3]
  t1/2: 2.6 h
HeLa [4]
  Activity: Active
[5]
  Activity: Non-Toxic

From ChEMBL document CHEMBL5108059, “Discovery of 2-Methyl-2-(4-(2-methyl-8-(1H-pyrrolo[2,3-b]pyridin-6-yl)-1H-naphtho[1,2-d]imidazol-1-yl)phenyl)propanenitrile as a Novel PI3K/mTOR Inhibitor with Enhanced Antitumor Efficacy In Vitro and In Vivo” (J Med Chem, 2022)
